This assay has as its system MOLT-4 cells. In words: MOLT-4 Cell Proliferation Assay (CellTiter-Glo). The assay is classed as cell-based. The conditions noted are these: Homo sapiens, 72 h, read-out: MOLT-4 CTG IC50. On the procedure:
Cell proliferation was measured using the CellTiter-Glo® Luminescent Cell Viability Assay. The assay involved the addition of a single reagent (CellTiter-Glo® Reagent) directly to cells cultured in serum-supplemented medium. MOLT-4 cells (ATCC, CRL-1582) were cultured according to ATCC recommendations and were seeded at 50,000 cells per well.
Each compound evaluated was prepared as a DMSO stock solution (10 mM). Compounds were tested in duplicate on each plate, with a 10-point serial dilution curve (1:3 dilution). The highest compound concentration was 10 μM (final), with a 0.1% final DMSO concentration. Plates were then incubated at 37° C., 5% CO2 for 72 h, cell plates were equilibrated at rt for approximately 30 mins. An equi-volume amount of CellTiter-Glo® Reagent (100 μL) was added to each well. Plates were mixed for 2 mins on an orbital shaker to induce cell lysis and then incubated at rt for 10 mins to stabilize the luminescent signal. Luminescence was recorded using a Envision plate reader according to CellTiter-Glo protocol. IC50 of each compound was calculated using GraphPad Prism by nonlinear regression analysis.
In general terms: Cellular ATP, detected with luciferase, serves as a proxy for viable cell number.

Experimental findings from patent publication US20230167105A1, “BCL-2 PROTEIN INHIBITORS” (Recurium IP Holdings, LLC, priority 2020, published 2023) are described below.

Each structure is given as a SMILES string. A value given as a limit tells only on which side of the number the result lay.

Regarding `CC1(C)CCC(c2ccc(Cl)cc2)=C(CN2CCN(c3ccc(C(=O)NS(=O)(=O)c4ccc(N[C@H](CCN5CCOCC5)CSc5ccccc5)c(S(=O)(=O)C(F)(F)F)c4)cc3)CC2)C1` [ABT-263, navitoclax, reference compound], the IC50 – broadly, the concentration needed to halve the response being measured – was in the range of 50 to 150 nM.
With `Cc1ncsc1-c1ccc([C@H](C)NC(=O)[C@@H]2C[C@@H](O)CN2C(=O)[C@@H](NC(=O)CCCCC(=O)N2CCN(CC[C@H](CSc3ccccc3)Nc3ccc(S(=O)(=O)NC(=O)c4ccc(N5CCN(CC6=C(C78CC(C(F)F)(C7)C8)CC(C)(C)CC6)CC5)cc4)cc3S(=O)(=O)C(F)(F)F)CC2)C(C)(C)C)cc1` [Example 1, (2S,4R)-1-((S)-2-(6-(4-((R)-3-((4-(N-(4-(4-((2-(3-(difluoromethyl)bicyclo[1.1.1]pentan-1-yl)-4,4-dimethylcyclohex-1-en-1-yl)methyl)piperazin-1-yl)benzoyl)sulfamoyl)-2-((trifluoromethyl)sulfonyl)phenyl)amino)-4-(phenylthio)butyl)piperazin-1-yl)-6-oxohexanamido)-3,3-dimethylbutanoyl)-4-hydroxy-N—((S)-1-(4-(4-methylthiazol-5-yl)phenyl)ethyl)pyrrolidine-2-carboxamide] the figure was no less than 150 nM; with `CC1(C)CCC(CN2CCN(c3ccc(C(=O)NS(=O)(=O)c4ccc(N[C@H](CCN5CCN(CCCCCNc6cccc7c6C(=O)N(C6CCC(=O)NC6=O)C7=O)CC5)CSc5ccccc5)c(S(=O)(=O)C(F)(F)F)c4)cc3)CC2)=C(C23CC(C(F)F)(C2)C3)C1` (stereo partly drawn) [Example 2, 4-(4-((2-(3-(difluoromethyl)bicyclo[1.1.1]pentan-1-yl)-4,4-dimethylcyclohex-1-en-1-yl)methyl)piperazin-1-yl)-N-((4-(((2R)-4-(4-(5-((2-(2,6-dioxopiperidin-3-yl)-1,3-dioxoisoindolin-4-yl)amino)pentyl)piperazin-1-yl)-1-(phenylthio)butan-2-yl)amino) ((trifluoromethyl)sulfonyl)phenyl)sulfonyl)benzamide], no more than 50 nM; with `CC1(C)CCC(CN2CCN(c3ccc(C(=O)NS(=O)(=O)c4ccc(N[C@H](CCN5CCN(CCCCCOc6cccc7c6C(=O)N(C6CCC(=O)NC6=O)C7=O)CC5)CSc5ccccc5)c(S(=O)(=O)C(F)(F)F)c4)cc3)CC2)=C(C23CC(C(F)F)(C2)C3)C1` (stereo partly drawn) [Example 3, 4-(4-((2-(3-(difluoromethyl)bicyclo [1.1.1]pentan-1-yl)-4,4-dimethylcyclohex-1-en-1-yl)methyl)piperazin-1-yl)-N-((4-(((2R)-4-(4-(5-((2-(2,6-dioxopiperidin-3-yl)-1,3-dioxoisoindolin-4-yl)oxy)pentyl)piperazin-1-yl)-1-(phenylthio)butan-2-yl)amino)-3-((trifluoromethyl)sulfonyl)phenyl)sulfonyl)benzamide], no more than 50 nM.
Turning to `CC1(C)CCC(CN2CCN(c3ccc(C(=O)NS(=O)(=O)c4ccc(N[C@H](CCN5CCN(CCCCCNc6ccc7c(c6)C(=O)N(C6CCC(=O)NC6=O)C7=O)CC5)CSc5ccccc5)c(S(=O)(=O)C(F)(F)F)c4)cc3)CC2)=C(C23CC(C(F)F)(C2)C3)C1` (stereo partly drawn) [Example 4, 4-(4-((2-(3-(difluoromethyl)bicyclo[1.1.1]pentan-1-yl)-4,4-dimethylcyclohex-1-en-1-yl)methyl)piperazin-1-yl)-N-((4-(((2R)-4-(4-(5-((2-(2,6-dioxopiperidin-3-yl)-1,3-dioxoisoindolin-5-yl)amino)pentyl)piperazin-1-yl)-1-(phenylthio)butan-2-yl)amino)-3-((trifluoromethyl)sulfonyl)phenyl)sulfonyl)benzamide], the half-maximal inhibitory concentration (IC50) is 50 to 150 nM.
To `CC1(C)CCC(CN2CCN(c3ccc(C(=O)NS(=O)(=O)c4ccc(N[C@H](CCN5CCN(CCCNc6cccc7c6C(=O)N(C6CCC(=O)NC6=O)C7=O)CC5)CSc5ccccc5)c(S(=O)(=O)C(F)(F)F)c4)cc3)CC2)=C(C23CC(C(F)F)(C2)C3)C1` (stereo partly drawn) [Example 5, 4-[4-[[2-[3-(difluoromethyl)-1-bicyclo [1.1.1]pentanyl]-4,4-dimethyl-cyclohexen-1-yl]methyl]piperazin-1-yl]-N-[4-[[(1R)-3-[4-[3-[[2-(2,6-dioxo-3-piperidyl)-1,3-dioxo-isoindolin-4-yl]amino]propyl]piperazin-1-yl]-1-(phenylsulfanylmethyl)propyl]amino]-3-(trifluoromethylsulfonyl)phenyl]sulfonyl-benzamide] belongs no more than 50 nM; to `CC1(C)CCC(CN2CCN(c3ccc(C(=O)NS(=O)(=O)c4ccc(N[C@H](CCN5CCN(CCCCCNc6cccc7c6C(=O)N(C6CCC(=O)NC6=O)C7=O)CC5)CSc5ccccc5)c(S(=O)(=O)C(F)(F)F)c4)cc3)CC2)=C(C23CC(C)(C2)C3)C1` (stereo partly drawn) [Example 7, 4-(4-((4,4-dimethyl-2-(3-methylbicyclo[1.1.1]pentan-1-yl)cyclohex-1-en-1-yl)methyl)piperazin-1-yl)-N-((4-(((2R)-4-(4-(5-((2-(2,6-dioxopiperidin-3-yl)-1,3-dioxoisoindolin-4-yl)amino)pentyl)piperazin-1-yl)-1-(phenylthio)butan-2-yl)amino)-3-((trifluoromethyl)sulfonyl)phenyl)sulfonyl)benzamide], 50 to 150 nM.
`CC1(C)CCC(CN2CCN(c3ccc(C(=O)NS(=O)(=O)c4ccc(N[C@H](CCN5CCN(CCCCNc6cccc7c6C(=O)N(C6CCC(=O)NC6=O)C7=O)CC5)CSc5ccccc5)c(S(=O)(=O)C(F)(F)F)c4)cc3)CC2)=C(C23CC(C(F)F)(C2)C3)C1` (stereo partly drawn) [Example 8, 4-[4-[[2-[3-(difluoromethyl)-1-bicyclo[1.1.1]pentanyl]-4,4-dimethyl-cyclohexen-1-yl]methyl]piperazin-1-yl]-N-[4-[[(1R)-3-[4-[4-[[2-(2,6-dioxo-3-piperidyl)-1,3-dioxo-isoindolin-4-yl]amino]butyl]piperazin-1-yl]-1-(phenylsulfanylmethyl)propyl]amino]-3-(trifluoromethylsulfonyl)phenyl]sulfonyl-benzamide]: the 50% inhibitory concentration (IC50) is no more than 50 nM.
As for `CCC12CC(C3=C(CN4CCN(c5ccc(C(=O)NS(=O)(=O)c6ccc(N[C@H](CCN7CCN(CCCCCNc8cccc9c8C(=O)N(C8CCC(=O)NC8=O)C9=O)CC7)CSc7ccccc7)c(S(=O)(=O)C(F)(F)F)c6)cc5)CC4)CCC(C)(C)C3)(C1)C2` (stereo partly drawn) [Example 10, N-((4-(((2R)-4-(4-(5-((2-(2,6-dioxopiperidin-3-yl)-1,3-dioxoisoindolin-4-yl)amino)pentyl)piperazin-1-yl)-1-(phenylthio)butan-2-yl)amino)-3-((trifluoromethyl)sulfonyl)phenyl)sulfonyl)-4-(4-((2-(3-ethylbicyclo[1.1.1]pentan-1-yl)-4,4-dimethylcyclohex-1-en-1-yl)methyl)piperazin-1-yl)benzamide], the 50% inhibitory concentration (IC50) was 50 to 150 nM.
To `CC1(C)CCC(CN2CCN(c3ccc(C(=O)NS(=O)(=O)c4ccc(N[C@H](CCN5CCN(CCCCCCNc6cccc7c6C(=O)N(C6CCC(=O)NC6=O)C7=O)CC5)CSc5ccccc5)c(S(=O)(=O)C(F)(F)F)c4)cc3)CC2)=C(C23CC(C(F)F)(C2)C3)C1` (stereo partly drawn) [Example 11, 4-[4-[[2-[3-(difluoromethyl)-1-bicyclo[1.1.1]pentanyl]-4,4-dimethyl-cyclohexen-1-yl]methyl]piperazin-1-yl]-N-[4-[[(1R)-3-[4-[6-[[2-(2,6-dioxo-3-piperidyl)-1,3-dioxo-isoindolin-4-yl]amino]hexyl]piperazin-1-yl]-1-(phenylsulfanylmethyl)propyl]amino]-3-(trifluoromethylsulfonyl)phenyl]sulfonyl-benzamide] belongs no less than 150 nM.
